{
  "source": "patent US20160096826A1",
  "about": "“CO-CRYSTALS OF LAPATINIB MONOACID SALTS” (priority 2014, published 2016)",
  "key": {"in vivo [1]": {"assay": "in vivo", "conditions": "male, Wistar, rat, male rats; for AUC(0-t): AUCt; for Cmax: suspension in hydroxypropylmethylcellulose:Tween 80 in WFI, plasma Lapatinib; for bioavailability: F (absolute bioavailability), oral 30 mg/kg AUCt compared with iv 10 mg/kg; for Vd/F: Vz/F; for MRT last: MRTt (mean residence time)", "procedure": "(§1) For the oral administration, the compounds were suspended in hydroxypropylmethylcellulose:Tween 80 (0.5%:0.1%) in WFI to reach a concentration of 3 mg parent compound/mL in all cases.\n(§2) A bioanalytical UPLC®-MS/MS method was characterized and allowed the determination of the Lapatinib in rat plasma; the precision and accuracy of the QC samples was appropriate according to international guidelines.\n(§3) A non-compartmental pharmacokinetic analysis was carried out with mean plasma concentration-time curves using WinNonlin® Professional Version 6.3 (Phoenix Version 1.3, Pharsight Corporation):\n(§4) For the preparation of the intravenous solution and the oral suspensions, the correction factor and the purity were applied for all compounds. Blood samples were collected from all animals at all scheduled time points.\n(§5) The study samples were analyzed according to the following UPLC®-MS/MS method:"}, "[2]": {"assay": "Model-based PK analysis (NONMEM), oral administration, two parallel input processes", "conditions": "for AUC0INF / Absolute Bioavail. / Cmax / MRTINF / Tmax: derived from PK modelling, oral", "source_text": "(§6) Therefore, the absorption process was described by two parallel inputs processes. The first input characterized a fast-release component (with a ka1 rate of absorption) while the second input characterized a delayed release of the drug (with a ka2 rate of absorption). The fraction of the oral dose associated with the first absorption component was estimated by the F parameter, while the remaining fraction of the drug (1-F) was assumed to be released in the second absorption process. The F fraction of the dose was immediately release (lag1) while the release of the remaining (1-F) fraction occurred with an estimated lag time (lag2).\n(§7) The disposition and elimination PK parameters of Lapatinib (k12, k21, k13, k31, and kel) for the different oral formulations were fixed to the ones estimated in the IV model due to the limited PK samples available for a proper characterization of these parameters after oral administration."}, "[3]": {"assay": "Stability at 74% RH at 40° C. (XRPD)"}, "[4]": {"assay": "Stability in water suspension followed by XRPD", "format": "physicochemical", "conditions": "40 volumes of water, room temperature, XRPD at 1, 4 and 24 hours", "method": "The three suspensions were stirred at room temperature in 40 volumes of water and the transformation of the product was followed by XRPD at 1 hour, 4 hours and 24 hours."}, "[5]": {"conditions": "male rats; for Cmax: suspension in hydroxypropylmethylcellulose:Tween 80 in WFI, plasma Lapatinib", "procedure": "as §1, §2, §3, §4, §5"}, "[6]": {"assay": "Intravenous bolus pharmacokinetics, non-compartmental analysis, 10 mg Lapatinib/kg", "format": "in vivo", "conditions": "Wistar, rat, plasma, male rats", "procedure": "as §3"}, "[7]": {"conditions": "Tyverb EPAR; cited from earlier work"}, "in vivo [8]": {"assay": "in vivo", "conditions": "Wistar, rat, plasma, po, 30 mg/kg", "source_text": "as §6, §7"}, "in vivo [9]": {"assay": "in vivo", "conditions": "Wistar, rat, plasma, iv, 10 mg/kg"}, "[10]": {"assay": "Model-based PK analysis (NONMEM), IV administration, three-compartment model", "conditions": "Group 1"}, "[11]": {"conditions": "cited from earlier work"}, "[12]": {"assay": "pKa values for the FDA co-crystal criterion", "format": "physicochemical", "conditions": "approximated by comparison with Gefitinib and Erlotinib; read-out: pKa of the second less basic function", "description": "As further confirmation that the products of the present inventions are co-crystals and not simply salts, the criterion adopted by the FDA Guidelines of April 2013 (see below) is here reported: the active ingredient-excipient complex should be classified as co-crystal if ΔpKa of the two species is <1."}, "[13]": {"conditions": "coformer acid; cited from earlier work"}, "[14]": {"conditions": "plasma, po, 30 mg/kg, oral 30 mg/kg"}, "[15]": {"conditions": "listed as co-crystal Lapatinib monotosylate:caproic acid (1:2)"}, "[16]": {"conditions": "listed as co-crystal Lapatinib monotosylate:caprylic acid (1:2)"}},
  "note": "Counter-ions that a name gives are not always drawn. Like-named read-outs stand apart in the source and are kept apart here.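 Wherever Cmax/AUCt (apparent absorption rate) is given: parent drug in plasma quantified by UPLC-MS/MS, parameters derived by non-compartmental analysis of mean concentration-time curves, oral suspension at 3 mg/mL.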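 Wherever F (absolute bioavailability) is given: parent drug in plasma quantified by UPLC-MS/MS, parameters derived by non-compartmental analysis of mean concentration-time curves, oral suspension at 3 mg/mL.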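 Wherever F is given: parent drug in plasma quantified by UPLC-MS/MS, parameters derived by non-compartmental analysis of mean concentration-time curves, oral suspension at 3 mg/mL.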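 Wherever t1/2app (apparent terminal elimination half-life) is given: parent drug in plasma quantified by UPLC-MS/MS, parameters derived by non-compartmental analysis of mean concentration-time curves, oral suspension at 3 mg/mL.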",
  "data": [
    {"smiles": "CS(=O)(=O)CCNCc1ccc(-c2ccc3ncnc(Nc4ccc(OCc5cccc(F)c5)c(Cl)c4)c3c2)o1", "note": "[Form I, Lapatinib monotosylate:caproic acid (1:2)]", "values": [
      {"measurement": "AUC(0-t)", "setting": "in vivo [1]; [14]", "value": 13300, "unit": "ng·h/mL"},
      {"measurement": "CL/F", "setting": "in vivo [1]; [14]", "value": 33.2, "unit": "mL/min/kg"},
      {"measurement": "Cmax", "setting": "in vivo [1]; [14]", "value": 3170, "unit": "ng/mL"},
      {"measurement": "bioavailability", "setting": "in vivo [1]; plasma, po, 30 mg/kg", "value": 32.4, "unit": "%"},
      {"measurement": "Vd/F", "setting": "in vivo [1]; [14]", "value": 6.83, "unit": "L/kg"},
      {"measurement": "Tmax", "setting": "in vivo [1]; plasma, po, 30 mg/kg, tmax, oral 30 mg/kg", "value": 2, "unit": "h"},
      {"measurement": "AUC0INF", "setting": "[2]; [15]", "value": 15000, "unit": "ng·h/mL"},
      {"measurement": "Absolute Bioavail.", "setting": "[2]; [15]", "value": 35.5, "unit": "%"},
      {"measurement": "Cmax", "setting": "[2]; [15]", "value": 3018.6, "unit": "ng/mL"},
      {"measurement": "MRTINF", "setting": "[2]; [15]", "value": 3.85, "unit": "h"},
      {"measurement": "Tmax", "setting": "[2]; [15]", "value": 1.6, "unit": "h"},
      {"measurement": "exposure time after which very small amounts of Lapatinib monotosylate Form M1 were detected by XRPD", "setting": "[3]", "value": 23, "unit": "days"},
      {"measurement": "Lapatinib monotosylate observed in the co-crystal after 23 days", "setting": "[3]", "value": "a little amount"}
    ]},
    {"smiles": "CS(=O)(=O)CCNCc1ccc(-c2ccc3ncnc(Nc4ccc(OCc5cccc(F)c5)c(Cl)c4)c3c2)o1", "note": "[Form II, Lapatinib monotosylate:caprylic acid (1:2)]", "values": [
      {"measurement": "stability in water suspension (XRPD finding)", "setting": "[4]", "value": "recovering pure Form II after 24 hours"},
      {"measurement": "Cmax", "setting": "[5]; oral 30 mg/kg, 30 mg/kg", "value": 2814, "unit": "ng/mL"},
      {"measurement": "AUCt", "setting": "[5]; oral 30 mg/kg, 30 mg/kg", "value": 20778, "unit": "ng·h/mL"},
      {"measurement": "Tmax", "setting": "[5]; oral 30 mg/kg, 30 mg/kg", "value": 3, "unit": "h"},
      {"measurement": "bioavailability", "setting": "in vivo [1]; in vivo, 30 mg Lapatinib/kg", "value": 50.7, "unit": "%"},
      {"measurement": "MRT last", "setting": "in vivo [1]; in vivo, po, 30 mg/kg, oral 30 mg/kg", "value": 4.67, "unit": "h"},
      {"measurement": "AUC0INF", "setting": "[2]; [16]", "value": 16700, "unit": "ng·h/mL"},
      {"measurement": "Absolute Bioavail.", "setting": "[2]; [16]", "value": 39.5, "unit": "%"},
      {"measurement": "Cmax", "setting": "[2]; [16]", "value": 2813.5, "unit": "ng/mL"},
      {"measurement": "MRTINF", "setting": "[2]; [16]", "value": 4.67, "unit": "h"},
      {"measurement": "Tmax", "setting": "[2]; [16]", "value": 3, "unit": "h"},
      {"measurement": "exposure time after which very small amounts of Lapatinib monotosylate Form M1 were detected by XRPD", "setting": "[3]", "value": 60, "unit": "days"},
      {"measurement": "Lapatinib monotosylate observed in the co-crystal after 23 days", "setting": "[3]", "value": "only traces"}
    ]},
    {"smiles": "CS(=O)(=O)CCNCc1ccc(-c2ccc3ncnc(Nc4ccc(OCc5cccc(F)c5)c(Cl)c4)c3c2)o1", "note": "[Form III, Lapatinib monohydrochloride:adipic acid (1:1)]", "values": [
      {"measurement": "F (absolute bioavailability)", "setting": "[5]; oral 30 mg/kg AUCt compared with iv 10 mg/kg", "value": 44.98, "unit": "%"},
      {"measurement": "Cmax", "setting": "[5]; oral 30 mg/kg, 30 mg/kg", "value": 2567, "unit": "ng/mL"},
      {"measurement": "AUCt", "setting": "[5]; oral 30 mg/kg, 30 mg/kg", "value": 18433, "unit": "ng·h/mL"},
      {"measurement": "Tmax", "setting": "[5]; oral 30 mg/kg, 30 mg/kg", "value": 3, "unit": "h"},
      {"measurement": "t1/2app (apparent terminal elimination half-life)", "setting": "[5]; oral 30 mg/kg, 30 mg/kg", "value": 3.13, "unit": "h"}
    ]},
    {"smiles": "CS(=O)(=O)CCNCc1ccc(-c2ccc3ncnc(Nc4ccc(OCc5cccc(F)c5)c(Cl)c4)c3c2)o1.Cc1ccc(S(=O)(=O)O)cc1", "note": "[Lapatinib ditosylate monohydrate, N-{3-chloro-4-[(3-fluorobenzyl)oxy]phenyl}-6-[5-({[2-(methylsulphonyl)ethyl]amino}methyl)furan-2-yl]quinazolin-4-amine bis(4-methylbenzenesulphonate)monohydrate, reference compound]", "values": [
      {"measurement": "C0", "setting": "[6]; iv bolus 10 mg/kg in DMSO:PEG:WFI (10:40:50), read-out: C0 (extrapolated concentration at time 0)", "value": 20200, "unit": "ng/mL"},
      {"measurement": "AUC(0-t)", "setting": "[6]; iv bolus 10 mg/kg", "value": 13700, "unit": "ng·h/mL"},
      {"measurement": "MRT last", "setting": "[6]; iv bolus 10 mg/kg", "value": 1.54, "unit": "h"},
      {"measurement": "hygroscopicity", "setting": "[7]", "value": "non-hygroscopic"},
      {"measurement": "solubility in aqueous media", "setting": "[7]", "value": "practically insoluble in aqueous media"},
      {"measurement": "AUC", "setting": "in vivo [8]", "value": 18400, "unit": "ng·h/mL"},
      {"measurement": "Cmax", "setting": "in vivo [8]", "value": 3510, "unit": "ng/mL"},
      {"measurement": "MRT inf", "setting": "in vivo [8]", "value": 4.31, "unit": "h"},
      {"measurement": "Tmax", "setting": "in vivo [8]", "value": 2, "unit": "h"},
      {"measurement": "Cmax/AUCt (apparent absorption rate)", "setting": "[5]; oral 30 mg/kg", "value": 0.149, "unit": "h⁻¹"},
      {"measurement": "bioavailability", "setting": "in vivo [1]; plasma, oral, 30 mg Lapatinib/kg", "value": 57.5, "unit": "%"},
      {"measurement": "AUC(0-t)", "setting": "in vivo [1]; [14]", "value": 23600, "unit": "ng·h/mL"},
      {"measurement": "CL/F", "setting": "in vivo [1]; [14]", "value": 21.2, "unit": "mL/min/kg"},
      {"measurement": "Cmax", "setting": "in vivo [1]; [14]", "value": 3520, "unit": "ng/mL"},
      {"measurement": "MRT last", "setting": "in vivo [1]; [14]", "value": 4.28, "unit": "h"},
      {"measurement": "Vd/F", "setting": "in vivo [1]; [14]", "value": 4.38, "unit": "L/kg"},
      {"measurement": "half-life", "setting": "in vivo [1]; plasma, po, 30 mg/kg, t1/2app (apparent terminal elimination half-life), oral 30 mg/kg", "value": 143, "unit": "min"},
      {"measurement": "AUC", "setting": "in vivo [9]", "value": 12300, "unit": "ng·h/mL"},
      {"measurement": "MRT inf", "setting": "in vivo [9]", "value": 35.9, "unit": "h"},
      {"measurement": "AUC0INF", "setting": "[2]", "value": 18400, "unit": "ng·h/mL"},
      {"measurement": "Absolute Bioavail.", "setting": "[2]", "value": 43.5, "unit": "%"},
      {"measurement": "lag1", "setting": "[2]; oral model, first (immediate) release", "value": 0},
      {"measurement": "k12", "setting": "[10]; IV model", "value": 0.616},
      {"measurement": "k13", "setting": "[10]; IV model", "value": 3.14},
      {"measurement": "k21", "setting": "[10]; IV model", "value": 0.00202},
      {"measurement": "k31", "setting": "[10]; IV model", "value": 1.47},
      {"measurement": "kel", "setting": "[10]; IV model", "value": 1.6},
      {"measurement": "v", "setting": "[10]; IV model", "value": 0.358},
      {"measurement": "AUC0INF", "setting": "[10]; derived from PK modelling, IV", "value": 14100, "unit": "ng·h/mL"},
      {"measurement": "T12", "setting": "[10]; derived from PK modelling, IV", "value": 176, "unit": "h"}
    ]},
    {"smiles": "CS(=O)(=O)CCNCc1ccc(-c2ccc3ncnc(Nc4ccc(OCc5cccc(F)c5)c(Cl)c4)c3c2)o1", "note": "[Lapatinib]", "values": [
      {"measurement": "increase of bioavailability when co-administered with a high fat meal", "setting": "[11]; compared with fasting conditions, Ratain and Cohen", "value": 325, "unit": "%"},
      {"measurement": "drug class (solubility/permeability)", "setting": "[11]; low solubility-good permeability, Custodio et al.", "value": "Class II"},
      {"measurement": "pKa", "setting": "[12]", "value": "~5.4"}
    ]},
    {"smiles": "CCCCCC(=O)O", "note": "[caproic acid]", "values": [
      {"measurement": "pKa", "setting": "[13]", "value": 4.8}
    ]},
    {"smiles": "CCCCCCCC(=O)O", "note": "[caprylic acid]", "values": [
      {"measurement": "pKa", "setting": "[13]", "value": 4.91}
    ]}
  ]
}
